Experimental data: patent US7332476B2, “Pyridyl substituted ketolide antibiotics” (Novartis AG, priority 2003, dated 2008)
Converted amounts (≈) assume the structure as drawn.

Assays:
Assay in all cases: MIC, broth microdilution (NCCLS)
[1] = test system: Streptococcus pneumoniae Stpn_280-962; type: cell-based; conditions: Table 7, Strain ID H (Table 6): S. pneumoniae Stpn_280-962
Description: (§1) Strains. The bacterial isolates listed in Table 4 were cultivated from −70° C. frozen stocks by two consecutive overnight passages (P1, P2) at 35° C. on 5% blood agar (Remel, Lenexa, Kans.). Chocolate agar (Remel) is used for Haemophilus influenzae. H. influenzae and Streptococcus pneumoniae are incubated in 5-10% CO2
(§2) Drug Stock Preparation. To determine the amount of solvent to be used to give the desired final concentration, the formula “weight obtained in mg/final concentration in mg/ml” will be used. It will give the amount of solvent in ml needed to be added to give the desired concentration. For example, if 2.5 mg/ml is the desired concentration and the weight of compound is 13.7 mg, then the amount of solvent to be added is […]. Methanol is used as the solvent to dissolve the test compounds. Further dilution of stock is done in sterile, deionized water. Drug stocks are kept frozen at −70° C., protected from light.
(§3) Susceptibility Testing. MICs are determined by the broth microdilution method in accordance with the NCCLS guidelines. In brief, organism suspensions are adjusted to a 0.5 McFarland standard to yield a final inoculum between 3×10^5 and 7×10^5 CFU/ml. Drug dilutions and inocula are made in sterile, cation adjusted Mueller-Hinton Broth (CAMHB) (Remel) for all but S. pneumoniae [CAMHB with 2-5% lysed horse blood (Remel)] and H. influenzae [Haemophilus Test Medium (Remel)]. An inoculum volume of 100 μl is added to wells containing 100 μl of broth with 2-fold serial dilutions of drug. All inoculated microdilution trays are incubated in ambient air at 35° C. for 18-24 hours, except for S. pneumoniae, and H. influenzae (both at 5-10% CO2).
(§4) Following appropriate incubation, the MIC is determined and the MIC is defined as the lowest concentration of the drug that prevented visible growth.
as §1, with “8” for “4”
(§5) Following appropriate incubation, the MIC is determined and the MIC is defined as the lowest concentration of the drug that prevented visible growth. […] Antibacterial activity of representative compounds of the invention were compared against telitromycin.

[2] = test system: S. pneumoniae Stpn_Erm 6849; type: cell-based, Streptococcus pneumoniae; conditions: Table 7, Strain ID I (Table 6): S. pneumoniae Stpn_Erm 6849
Description: as §1, §2, §3, §4

[3] = test system: Streptococcus pyogenes Stpy_8668; type: cell-based; conditions: Table 7, Strain ID E (Table 6): S. pyogenes Stpy_8668
Description: as §1, §2, §3, §4
as §1, with “8” for “4”
as §5

[4] = test system: Streptococcus pneumoniae Stpn_49619; type: cell-based; conditions: Table 7, Strain ID F (Table 6): S. pneumoniae Stpn_49619
Description: as §1, §2, §3, §4
as §1, with “8” for “4”
as §5

[5] = test system: Staphylococcus epidermidis Step_f50654; type: cell-based; conditions: Table 7, Strain ID C (Table 6): S. epidermidis Step_f50654; in µg/mL (unit assumed)
Description: as §1, §2, §3, §4
as §1, with “8” for “4”
as §5

[6] = test system: Enterococcus faecalis Enfa_29212; type: cell-based; conditions: Table 7, Strain ID D (Table 6): E. faecalis Enfa_29212; in µg/mL (unit assumed)
Description: as §1, §2, §3, §4
as §1, with “8” for “4”
as §5

[7] = test system: Staphylococcus epidermidis Step_14990; type: cell-based; conditions: Table 7, Strain ID B (Table 6): S. epidermidis Step_14990; in µg/mL (unit assumed)
Description: as §1, §2, §3, §4
as §1, with “8” for “4”
as §5

[8] = test system: Streptococcus pneumoniae Stpn_Erm S 4297; type: cell-based; conditions: Table 7, Strain ID J (Table 6): S. pneumoniae Stpn_Erm S 4297
Description: as §1, §2, §3, §4
as §1, with “8” for “4”
as §5

[9] = test system: Haemophilus influenzae Hain_49247; type: cell-based; conditions: Table 7, Strain ID M (Table 6): H. influenzae Hain_49247; unit assumed
Description: as §1, §2, §3, §4
as §1, with “8” for “4”
as §5

[10] = test system: Staphylococcus aureus Stau_29213; type: cell-based; conditions: Table 7, Strain ID A (Table 6): S. aureus Stau_29213; in µg/mL (unit assumed)
Description: as §1, §2, §3, §4
as §1, with “8” for “4”
as §5

[11] = test system: Streptococcus pneumoniae Stpn_Mef S 3427; type: cell-based; conditions: Table 7, Strain ID L (Table 6): S. pneumoniae Stpn_Mef S 3427
Description: as §1, §2, §3, §4
as §1, with “8” for “4”
as §5

[12] = test system: Streptococcus pneumoniae Stpn_Mef 5654; type: cell-based; conditions: Table 7, Strain ID K (Table 6): S. pneumoniae Stpn_Mef 5654; in µg/mL (unit assumed)
Description: as §1, §2, §3, §4
as §1, with “8” for “4”
as §5

[13] = test system: Streptococcus pneumoniae Stpn_297-749; type: cell-based; conditions: Table 7, Strain ID G (Table 6): S. pneumoniae Stpn_297-749
Description: as §1, §2, §3, §4
as §1, with “8” for “4”
as §5

CC[C@H]1OC(=O)[C@@](C)(F)C(=O)[C@H](C)[C@@H](OC2O[C@H](C)C[C@H](N(C)C)[C@H]2O)[C@@](C)(OC)C[C@@H](C)C(=O)[C@H](C)[C@H]2N(CCCC(C)(C)n3cnc4ncccc43)C(=O)O[C@]12CC (stereo partly drawn) [Example 39, (3aS,4R,7S,9R,10R,11S,13R,15R,15aR)-3a,4-diethyl-7-fluoro-1-[4-(1H-imidazo[4,5-b]pyridin-1-yl)-4-methylpentyl]-11-methoxy-7,9,11,13,15-pentamethyl-2,6,8,14-tetraoxotetradecahydro-2H-oxacyclotetradecino[4,3-d][1,3]oxazol-10-yl-3,4,6-trideoxy-3-(dimethylamino)-D-xylo-hexopyranoside] was tested, and the MIC [1] was “=0.05”, the MIC ([2]; unit assumed) was 0.1 µg/mL (≈ 0.118 µM) and the MIC [3] was “=0.05”. For the same molecule, the MIC [4] was “=0.05”, the MIC [5] was 0.4 and the MIC [6] was 0.1. For the same molecule, the MIC [7] was 0.1, the MIC [8] was “=0.05” and the MIC [9] was 3.13 µg/mL (≈ 3.7 µM). For the same molecule, the MIC [10] was 0.2, the MIC ([11]; in µg/mL (unit assumed)) was 0.2 and the MIC [12] was 0.78. For the same molecule, the MIC [13] was “=0.05”.
CCC1OC(=O)C(C)C(=O)C(C)C(OC2OC(C)CC(N(C)C)C2O)C(C)(OC)CC(C)C(=O)C(C)C2C1OC(=O)N2CCCOc1cccc(-c2cccnc2)c1 (centres unmarked) [Compound 20s] was tested, and the MIC [1] was “=0.05”, the MIC ([2]; unit assumed) was 12.5 µg/mL (≈ 15.4 µM) and the MIC [3] was “=0.05”. For the same molecule, the MIC [4] was “=0.05”, the MIC [5] was 0.4 and the MIC [6] was 0.2. It also gave an MIC [7] of 0.78, an MIC ([8]; unit assumed) of 0.2 µg/mL (≈ 0.247 µM) and an MIC [9] of 3.13 µg/mL (≈ 3.86 µM). The MIC [10] was 0.78, the MIC [11] was “=0.05” and the MIC [12] was 0.78. The MIC [13] was “=0.05”.
In the case of CCC1OC(=O)C(C)C(=O)C(C)C(OC2OC(C)CC(N(C)C)C2O)C(C)(OC)CC(C)C(=O)C(C)C2C1OC(=O)N2CCCCc1ncc(-c2ccc(F)cc2F)s1 (centres unmarked) [Compound 20u], the MIC ([1]; unit assumed) is reported as 0.1 µg/mL (≈ 0.118 µM), the MIC ([2]; unit assumed) is reported as 25 µg/mL (≈ 29.4 µM) and the MIC ([3]; unit assumed) is reported as 0.4 µg/mL (≈ 0.471 µM). It also gave an MIC ([4]; unit assumed) of 0.1 µg/mL (≈ 0.118 µM), an MIC [5] of 0.4 and an MIC [6] of 0.4. It also gave an MIC [7] of 0.78, an MIC ([8]; unit assumed) of 12.5 µg/mL (≈ 14.7 µM) and an MIC [9] of 25 µg/mL (≈ 29.4 µM). For the same molecule, the MIC [10] was 0.78, the MIC ([11]; in µg/mL (unit assumed)) was 0.2 and the MIC [12] was 1.56. It also gave an MIC ([13]; unit assumed) of 0.1 µg/mL (≈ 0.118 µM).
For C=C[C@]12OC(=O)N(CCCCn3cnc(-c4cccnc4)c3)[C@@H]1[C@@H](C)C(=O)[C@H](C)C[C@](C)(OC)[C@H](OC1O[C@H](C)C[C@H](N(C)C)[C@H]1O)[C@@H](C)C(=O)[C@@H](C)C(=O)O[C@@H]2CC (stereo partly drawn) [Example 48, (3aS,4R,7R,9R,10R,11R,13R,15R,15aR)-4-ETHYL-11-METHOXY-7,9,11,13,15-PENTAMETHYL-2,6,8,14-TETRAOXO-1-[4-(4-PYRIDIN-3-YL-1H-IMIDAZOL-1-YL)BUTYL]-3a-VINYLTETRADECAHYDRO-1H-OXACYCLOTETRADECINO[4,3-D][1,3]OXAZOL-10-YL-3,4,6-TRIDEOXY-3-(DIMETHYLAMINO)-D-XYLO-HEXOPYRANOSIDE], the MIC [1] was “=0.05”, the MIC ([2]; unit assumed) was 0.4 µg/mL (≈ 0.485 µM) and the MIC [3] was “=0.05”. The MIC [4] was “=0.05”, the MIC [5] was 0.2 and the MIC [6] was 0.1. The MIC [7] was 0.2, the MIC [8] was “=0.05” and the MIC [9] was 3.13 µg/mL (≈ 3.8 µM). It also gave an MIC [10] of 0.2, an MIC ([11]; in µg/mL (unit assumed)) of 0.1 and an MIC [12] of 0.78. For the same molecule, the MIC [13] was “=0.05”.
CC[C@H]1OC(=O)[C@H](C)C(=O)[C@H](C)[C@@H](OC2O[C@H](C)C[C@H](N(C)C)[C@H]2O)[C@@](C)(OC)C[C@@H](C)C(=O)[C@H](C)[C@H]2N(CCCCc3ncc(-c4cccc(N)c4)s3)C(=O)O[C@]12CC (stereo partly drawn) [Example 34, (3aS,4R,7R,9R,10R,11S,13R,15R,15aR)-1-{4-[5-(3-AMINOPHENYL)-1,3-THIAZOL-2-YL]BUTYL}-3a,4-DIETHYL-11-METHOXY-7,9,11,13,15-PENTAMETHYL-2,6,8,14-TETRAOXOTETRADECAHYDRO-1H-OXACYCLOTETRADECINO[4,3-D][1,3]OXAZOL-10-YL 3,4,6-TRIDEOXY-3-(DIMETHYLAMINO)-D-XYLO-HEXOPYRANOSIDE] was tested, and the MIC [1] was “=0.05”, the MIC [2] was “=0.05” and the MIC [3] was “=0.05”. For the same molecule, the MIC [13] was “=0.05”.
With CC[C@H]1OC(=O)[C@@](C)(F)C(=O)[C@H](C)[C@@H](OC2O[C@H](C)C[C@H](N(C)C)[C@H]2O)[C@@](C)(OC)C[C@@H](C)C(=O)[C@H](C)[C@H]2N(CCCCc3ccc4ccccc4n3)C(=O)O[C@]12CC (stereo partly drawn) [65 (1), (3aS,4R,7S,9R,10R,11S,13R,15R,15aR)-3a,4-DIETHYL-7-FLUORO-11-METHOXY-7,9,11,13,15-PENTAMETHYL-2,6,8,14-TETRAOXO-1-(4-QUINOLIN-2-YLBUTYL)TETRADECAHYDRO-2H-OXACYCLOTETRADECINO[4,3-D][1,3]OXAZOL-10-YL-3,4,6-TRIDEOXY-3-(DIMETHYLAMINO)-D-XYLO-HEXOPYRANOSIDE] the MIC [2] was “=0.05”, the MIC [3] was “=0.05” and the MIC [5] was 0.2. For the same molecule, the MIC [6] was 0.1, the MIC [7] was 0.2 and the MIC [8] was “=0.05”. For the same molecule, the MIC [9] was 3.13 µg/mL (≈ 3.78 µM), the MIC [10] was 0.2 and the MIC [11] was “=0.05”. It also gave an MIC [12] of 0.2.
CC[C@H]1OC(=O)[C@H](C)C(=O)[C@H](C)[C@@H](OC2O[C@H](C)C[C@H](N(C)C)[C@H]2O)[C@@](C)(OC)C[C@@H](C)C(=O)[C@H](C)[C@H]2N(CCCCn3cnc(-c4ccc(F)nc4)c3)C(=O)O[C@]12CC (stereo partly drawn) [Example 33, (3aS,4R,7R,9R,10R,11S,13R,15R,15aR)-3a,4-DIETHYL-1-14-[4-(6-FLUOROPYRIDIN-3-YL)-1H-IMIDAZOL-1-YL]BUTYL}-11-METHOXY-7,9,11,13,15-PENTAMETHYL-2,6,8,14-TETRAOXOTETRADECAHYDRO-1H-OXACYCLOTETRADECINO[4,3-D][1,3]OXAZOL-10-YL-3,4,6-TRIDEOXY-3-(DIMETHYLAMINO)-D-XYLO-HEXOPYRANOSIDE] was tested, and the MIC [1] was “=0.05”, the MIC [2] was “=0.05” and the MIC [3] was “=0.05”. For the same molecule, the MIC [13] was “=0.05”.
CC[C@H]1OC(=O)[C@H](C)C(=O)[C@H](C)[C@@H](OC2O[C@H](C)C[C@H](N(C)C)[C@H]2O)[C@@](C)(OC)C[C@@H](C)C(=O)[C@H](C)[C@H]2N(CCCCn3cc(-c4cccnc4)nc3C)C(=O)O[C@]12CC (stereo partly drawn) [Example 20, (3aS,4R,7R,9R,10R,11S,13R,15R,15aR)-3a,4-diethyl-11-methoxy-7,9,11,13,15-pentamethyl-1-[4-(2-methyl-4-pyridin-3-yl-1H-imidazol-1-yl)butyl]-2,6,8,14-tetraoxotetradecahydro-2H-oxacyclotetradecino[4,3-d][1,3]oxazol-10-yl-3,4,6-trideoxy-3-(dimethylamino)-D-xylo-hexopyranoside] was tested, and the MIC [1] was “=0.05”, the MIC [2] was “=0.5” and the MIC [3] was “=0.05”. For the same molecule, the MIC [4] was “=0.05”, the MIC [8] was “=0.05” and the MIC [11] was “=0.05”. For the same molecule, the MIC [13] was “=0.05”.
